As usually defined, the CC50 is the concentration giving 50% cytotoxicity. Low values mean greater toxicity to the cells, high ones lower toxicity to the cells. Usually EC50 stands for the concentration needed to bring the measured effect to its halfway point.

Consider 26 compounds from patent publication US20220411419A1, “SMALL MOLECULE MODULATORS OF MHC-I” (RetroVirox, Inc., priority 2018, published 2022).

Data set [1] can be described thus: in vitro. Particulars: human, uninfected SupT1 cells.
Data set [2] has as its system MHC-I surface expression in uninfected SupT1 cells. Briefly: Increase of MHC-I surface expression in uninfected SupT1 cells (mean-MHC-I EC50, FIG. 6A). The note with it: Homo sapiens, SUP-T1, 24 h with compound, read-out: EC50 for MHC-I increased surface expression. It counts as cell-based. As for the experimental part: In some instances, the effect of small molecules in modulation of surface MHC-I was monitored in uninfected (rather than HIV-infected) Sup-T1 cells (FIG. 6A). In these experiments uninfected SupT1 cells were incubated with the compounds for 24 h and then the increase in MHC-I surface expression was monitored by staining cells with the biotinylated HLA-A2/28 antibody (One Lambda, clone BIH0037), washed and then incubated with streptavidin conjugated with APC (Streptavidin APC, EBiosciences, 17-4317) to reveal the anti-HLA-A2 bound antibody. After washing the cells again they were fixed with 0.5% paraformaldehyde and submitted to flow cytometry to determine the levels of MHC-I surface expression (APC fluorescence) in live cells (as estimated by FS/SS in these cells). […] From these assays “mean-MHC-I” EC50 values were generated to indicate the concentration of compound that augments the mean surface levels of MHC-I to 50% of the highest levels accomplished by the compound, as compared to cells treated with vehicle alone. […] Therefore, both assays: inhibition of MHC-I downmodulation in HIV infected SupT1 cells, or increase in surface MHC-I in uninfected SupT1 cells, were indistinctively used to monitor the potency of the compounds to modulate surface expression of MHC-I in SupT1 cells.
Table 7 show the activity of selected compounds utilizing the assay in which the increase of MHC-I surface expression in uninfected SupT1 cells was evaluated, as shown in FIG. 6A. The EC50 for MHC-I increased surface expression was determined using the methods described in Example 2 and illustrated in FIG. 6A.

In data set [3] the test system is downmodulation of MHC-I molecules expressed on the surface of HIV infected SupT1 cells. In words: cells. The note with it: for EC50: Human immunodeficiency virus 1, SUP-T1, read-out: EC50 for inhibition of MHC-I downmodulation utilizing the R1 parameter; for activity at 100 µM: Human immunodeficiency virus 1, SUP-T1, read-out: R1 @ 100 μM (R1 value for MHC-I downmodulation as % of the vehicle control).

As for `O=C(COc1cccc2[nH]ccc12)N(CC(F)(F)F)c1nc2c(s1)CCCC2` [Compound 165, 2-((1H-Indol-4-yl)oxy)-N-(4,5,6,7-tetrahydrobenzo[d]thiazol-2-yl)-N-(2,2,2-trifluoroethyl)acetamide], in data set [1], the CC50 was over 125 µM. Further, the EC50 in data set [2] was 1 µM.
On the same counts, the results for `Cc1nc(NC(=O)COc2cc(C(F)(F)F)cc3c2OC(C)(C)C3)ccc1C1CC1` [Compound 174, N-(5-Cyclopropyl-6-methylpyridin-2-yl)-2-((2,2-dimethyl-5-(trifluoromethyl)-2,3-dihydrobenzofuran-7-yl)oxy)acetamide] are over 125 µM and 2.5 µM.
On the same counts, the results for `Cc1nc(NC(=O)COc2cccc3c2OC(C)(C)C3)ccc1C1CC1` [Compound 167, N-(5-Cyclopropyl-6-methylpyridin-2-yl)-2-((2,2-dimethyl-2,3-dihydrobenzofuran-7-yl)oxy)acetamide] are over 125 µM and 0.47 µM.
In the case of `CC1(C)Cc2cccc(OCC(=O)N(CC(F)(F)F)c3nc4c(s3)CCCC4)c2O1` [Compound 164, 2-((2,2-Dimethyl-2,3-dihydrobenzofuran-7-yl)oxy)-N-(4,5,6,7-tetrahydrobenzo[d]thiazol-2-yl)-N-(2,2,2-trifluoroethyl)acetamide], the half-maximal cytotoxic concentration (CC50) in data set [1] is over 125 µM. In addition, in data set [2], the concentration for a half-maximal effect (EC50) came out at 0.026 µM.
Taken in the same sequence, the figures for `Cc1cc(C)nc(NC(=O)COc2cccc3c2OC(C)(C)C3)c1` [Compound 169, 2-((2,2-Dimethyl-2,3-dihydrobenzofuran-7-yl)oxy)-N-(4,6-dimethylpyridin-2-yl)acetamide] were over 125 µM and over 25 µM.
On the same counts, the results for `CC1(C)Cc2cccc(OCC(=O)N(CC(F)(F)F)c3nc4c(s3)COCC4)c2O1` [Compound 166, N-(6,7-Dihydro-4H-pyrano[4,3-d]thiazol-2-yl)-2-((2,2-dimethyl-2,3-dihydrobenzofuran-7-yl)oxy)-N-(2,2,2-trifluoroethyl)acetamide] are over 125 µM and 0.2 µM.
In data set [1], `Cc1nc(NC(=O)C(Cc2ccccc2)Oc2cccc3c2OC(C)(C)C3)ccc1C1CC1` (racemic) [Compound 172, (±)-N-(5-Cyclopropyl-6-methylpyridin-2-yl)-2-((2,2-dimethyl-2,3-dihydrobenzofuran-7-yl)oxy)-3-phenylpropanamide] yielded a cytotoxic concentration (CC50) of over 125 µM. Further, the 50% effective concentration (EC50) in data set [2] was found to be 8.4 µM.
In the case of `CC1(C)Cc2cccc(OC(Cc3ccccc3)C(=O)Nc3nc4c(s3)CCCC4)c2O1` (racemic) [Compound 171, (±)-2-((2,2-Dimethyl-2,3-dihydrobenzofuran-7-yl)oxy)-3-phenyl-N-(4,5,6,7-tetrahydrobenzo[d]thiazol-2-yl)propanamide], the half-maximal cytotoxic concentration (CC50) in data set [1] is over 125 µM. Also, the EC50 in data set [2] is 6.2 µM.
`Cc1csc(N(C(=O)COc2cccc3c2OC(C)(C)C3)c2ccccc2)n1` [Compound 180, 2-((2,2-Dimethyl-2,3-dihydrobenzofuran-7-yl)oxy)-N-(4-methylthiazol-2-yl)-N-phenylacetamide] returned a CC50 at 48 h in data set [1] of over 100 µM. The EC50 in data set [3] is 0.028 µM.
On the same counts, the results for `CC1(C)Cc2cccc(OCC(=O)Nc3nc4c(s3)COCC4)c2O1` [Compound 175, N-(6,7-Dihydro-4H-pyrano[4,3-d]thiazol-2-yl)-2-((2,2-dimethyl-2,3-dihydrobenzofuran-7-yl)oxy)acetamide] are 10 µM and 1.2 µM.
On the same counts, the results for `COc1ccccc1CCC(=O)N(C)c1nc2c(s1)CCCC2` [Compound 110, 3-(2-Methoxyphenyl)-N-methyl-N-(4,5,6,7-tetrahydrobenzo[d]thiazol-2-yl) propanamide] are over 125 µM and 4.1 µM.
In data set [1], `Cc1cnc(NC(=O)COc2cccc3c2OC(C)(C)C3)cc1C` [Compound 77, 2-((2,2-Dimethyl-2,3-dihydrobenzofuran-7-yl)oxy)-N-(4,5-dimethylpyridin-2-yl)acetamide] had a CC50 of over 125 µM and a CC50 at 48 h of over 125 µM. Also, in data set [3], the concentration giving a half-maximal response (EC50) was over 25 µM and the activity at 100 µM was determined as 21%.
Regarding `CCc1cccc(NC(=O)COc2cccc3c2OC(C)(C)C3)n1` [Compound 158, 2-((2,2-Dimethyl-2,3-dihydrobenzofuran-7-yl)oxy)-N-(6-ethylpyridin-2-yl) acetamide], in data set [1], the CC50 at 48 h is over 125 µM. For the same compound, in data set [3], the EC50 worked out at 13 µM.
`Cc1ccncc1OCC(=O)N(C)c1nc2c(s1)CCCC2` [Compound 138, N-Methyl-2-((4-methylpyridin-3-yl)oxy)-N-(4,5,6,7-tetrahydrobenzo[d]thiazol-2-yl)acetamide] showed a CC50 at 48 h in data set [1] of over 125 µM. The concentration for a half-maximal effect (EC50) in data set [3] is over 25 µM.
In the case of `CC(C)(C)OC(=O)N1CCC(CNC(=O)c2csc(NC(=O)COc3cccc4c3OC(C)(C)C4)n2)C1` (stereo not shown) [Compound 155, tert-Butyl 3-((2-(2-((2,2-dimethyl-2,3-dihydrobenzofuran-7-yl)oxy)acetamido)thiazole-4-carboxamido)methyl)pyrrolidine-1-carboxylate], in data set [1], the cytotoxic concentration (CC50) is over 90 µM and the CC50 at 48 h is over 90 µM. Besides, in data set [3], the 50% effective concentration (EC50) is over 25 µM and the activity at 100 µM is at least 100%.
As to `CC(C)(C)OC(=O)N1CCC(CNC(=O)c2cnc(NC(=O)COc3cccc4c3OC(C)(C)C4)s2)C1` (stereo not shown) [Compound 157, tert-Butyl 3-((2-(2-((2,2-dimethyl-2,3-dihydrobenzofuran-7-yl)oxy)acetamido)thiazole-5-carboxamido)methyl)pyrrolidine-1-carboxylate], in data set [1], the cytotoxic concentration (CC50) was over 90 µM and the cytotoxic concentration (CC50) at 48 h was over 90 µM. Also, in data set [3], the half-maximal effective concentration (EC50) was over 25 µM and the activity at 100 µM is at least 100%.
In turn, `O=C(COc1cccc2[nH]ccc12)Nc1nc2c(s1)CCCC2` [Compound 132, 2-((1H-Indol-4-yl)oxy)-N-(4,5,6,7-tetrahydrobenzo[d]thiazol-2-yl)acetamide] had a half-maximal cytotoxic concentration (CC50) at 48 h in data set [1] of over 125 µM. Also, the EC50 in data set [3] worked out at 0.081 µM.
For `Cc1csc(N(C(=O)COc2cccc3c2OC(C)(C)C3)c2ccc(Cl)cc2)n1` [Compound 59, N-(4-Chlorophenyl)-2-((2,2-dimethyl-2,3-dihydrobenzofuran-7-yl)oxy)-N-(4-methylthiazol-2-yl)acetamide], the 50% cytotoxic concentration (CC50) at 48 h in data set [1] is over 100 µM. Moreover, the EC50 in data set [3] stood at 0.86 µM.
In data set [1], `CC1(C)Cc2cccc(OCC(=O)Nc3ccccn3)c2O1` [Compound 7, 2-((2,2-Dimethyl-2,3-dihydrobenzofuran-7-yl)oxy)-N-(pyridin-2-yl) acetamide] returned a CC50 of over 100 µM and a CC50 at 48 h of over 100 µM. For the same compound, in data set [3], the concentration for a half-maximal effect (EC50) is over 25 µM and the activity at 100 µM is 34%.
With `Cc1ccnc(C)c1OCC(=O)N(C)c1nc2c(s1)CCCC2` [Compound 136, 2-((2,4-Dimethylpyridin-3-yl)oxy)-N-methyl-N-(4,5,6,7-tetrahydrobenzo[d]thiazol-2-yl)acetamide], it took 124 µM to reach half-maximal cytotoxicity in data set [1] (CC50 at 48 h). Moreover, in data set [3], the half-maximal effective concentration (EC50) stood at 12 µM.
In data set [1], `CC(C)c1ccc(NC(=O)COc2cccc3c2OC(C)(C)C3)nn1` [Compound 87, 2-((2,2-Dimethyl-2,3-dihydrobenzofuran-7-yl)oxy)-N-(6-isopropylpyridazin-3-yl)acetamide] gave a half-maximal cytotoxic concentration (CC50) at 48 h of over 100 µM. Moreover, the EC50 in data set [3] amounted to 0.58 µM.
Turning to `CC1(C)Cc2cccc(OCC(=O)Nc3ccc(Cl)nn3)c2O1` [Compound 24, N-(6-Chloropyridazin-3-yl)-2-((2,2-dimethyl-2,3-dihydrobenzofuran-7-yl)oxy)acetamide], in data set [1], the CC50 at 48 h is over 100 µM. The 50% effective concentration (EC50) in data set [3] is 4.5 µM.
Taken in the same sequence, the figures for `O=C(COc1cccc2c1CCN2)Nc1nc2c(s1)CCCC2` [Compound 135, 2-(Indolin-4-yloxy)-N-(4,5,6,7-tetrahydrobenzo[d]thiazol-2-yl)acetamide] were over 125 µM and 0.088 µM.
As for `CC1(C)Cc2cccc(OCC(=O)Nc3cncc4ccccc34)c2O1` [Compound 10, 2-((2,2-Dimethyl-2,3-dihydrobenzofuran-7-yl)oxy)-N-(isoquinolin-4-yl) acetamide], in data set [1], the half-maximal cytotoxic concentration (CC50) was over 100 µM and the 50% cytotoxic concentration (CC50) at 48 h was over 100 µM. In addition, in data set [3], the EC50 was over 25 µM and the activity at 100 µM is 46%.
In data set [1], `COc1c(OCC(=O)N(C)c2nc3c(s2)CCCC3)cccc1C1CC1` [Compound 120, 2-(3-Cyclopropyl-2-methoxyphenoxy)-N-methyl-N-(4,5,6,7-tetrahydrobenzo [d]thiazol-2-yl)acetamide] yielded a CC50 at 48 h of over 125 µM. The EC50 in data set [3] was determined as 4.8 µM.
Take `COc1ccccc1OCC(=O)Nc1nc(C)c(C)s1` [Compound 186, N-(4,5-Dimethylthiazol-2-yl)-2-(2-methoxyphenoxy)acetamide]: in data set [1], the CC50 is over 100 µM and the cytotoxic concentration (CC50) at 48 h was over 100 µM. For the same compound, in data set [3], the concentration for a half-maximal effect (EC50) was at least 25 µM and the activity at 100 µM amounted to 18%.
